{"source": "patent US20250339494A1", "about": "“COMPOUNDS INDUCING PRODUCTION OF PROTEINS BY IMMUNE CELLS” (UNIVERSITE PARIS CITE, priority 2022, published 2025)", "system": "Human B cells", "experiment": "IL-10 induction in human B cells cultivated 2 days with anti-IgM plus CpG; IL-10 measured in cell culture supernatants", "format": "cell-based", "conditions": "2 consecutive days, molecule at 0.25 μM final concentration, culture supernatant", "method": "Human B cells isolated magnetically through negative selection (B Cell Isolation Kit II, human, Miltenyi ref: 130-091-151) were cultivated for 2 consecutive days in the presence of anti-IgM plus CpG in the presence of the indicated molecule (see table 3) at 0.25 μM final concentration. IL-10 was measured in cell culture supernatants.\nHuman B cells isolated magnetically through negative selection (B Cell Isolation Kit II, human, Miltenyi ref: 130-091-151) were cultivated for 2 consecutive days in the presence of anti-IgM plus CpG in the presence of DMSO (as control) or in the presence of the indicated molecule (as identified in the attached excel file) at 0.25 microM final concentration. IL-10 was measured in cell culture supernatants. NS: non stimulated B cell culture condition.", "data": [{"substance": "2-methoxy-N-(1-methyl-2-(pyridin-3-yl)-1H-imidazo[4,5-b]pyridin-5-yl)benzamide + 2-methoxy-N-(3-methyl-2-(pyridin-3-yl)-3H-imidazo[4,5-b]pyridin-5-yl)benzamide [Compound 131]", "values": [{"measurement": "IL-10 Induction Mean (pg/mL) human", "value": 1.85, "unit": "pg/mL"}]}]}
